Patent US6849732B2, “Metalloproteinase inhibitors, pharmaceutical compositions containing them and their pharmaceutical uses, and methods and intermediates useful for their preparation” (Agouron Pharmaceuticals, Inc., priority 1995, dated 2005)
Structures can show the parent of a compound that is named as a salt.

Assays:
stromelysin (HSLN) = stromelysin (HSLN) (Homo sapiens, UniProt P08254); test: MCA fluorogenic enzyme assay, competitive inhibition analysis (Ki,app), stromelysin; format: biochemical; settings: Ki,app; MCA peptide substrate, 37° C., pH 7.5; read-out: Enzyme Inhibition Constants (K1) HSLN
gelatinase A (HG72kD) = biological target: T1, gelatinase A (HG72kD) (Homo sapiens, UniProt P08253); test: MCA fluorogenic enzyme assay, competitive inhibition analysis (Ki,app), gelatinase A; format: biochemical; settings: MCA peptide substrate, 37° C., pH 7.5, read-out: Enzyme Inhibition Constants (K1) HG72kD
T1 sequence (P08253 110-660): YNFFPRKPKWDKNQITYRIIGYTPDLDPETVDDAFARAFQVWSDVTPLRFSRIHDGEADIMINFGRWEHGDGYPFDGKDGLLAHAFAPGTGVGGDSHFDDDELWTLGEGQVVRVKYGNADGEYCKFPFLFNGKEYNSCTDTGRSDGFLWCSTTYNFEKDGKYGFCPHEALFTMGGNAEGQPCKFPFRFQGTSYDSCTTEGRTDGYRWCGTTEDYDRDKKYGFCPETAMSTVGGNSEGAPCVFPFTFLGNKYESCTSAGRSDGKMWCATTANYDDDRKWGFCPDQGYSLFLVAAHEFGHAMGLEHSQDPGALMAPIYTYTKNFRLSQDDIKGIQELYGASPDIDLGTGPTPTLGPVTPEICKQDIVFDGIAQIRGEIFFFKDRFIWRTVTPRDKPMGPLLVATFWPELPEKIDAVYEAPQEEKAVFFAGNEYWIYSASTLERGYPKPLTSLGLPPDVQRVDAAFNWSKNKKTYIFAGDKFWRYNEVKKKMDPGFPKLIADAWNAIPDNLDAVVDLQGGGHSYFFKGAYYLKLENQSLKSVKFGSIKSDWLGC

Coll3 = Coll3 (Homo sapiens, UniProt P45452); test: MCA fluorogenic enzyme assay, competitive inhibition analysis (Ki,app), Coll3; format: biochemical; settings: MCA peptide substrate, 37° C., pH 7.5, read-out: Enzyme Inhibition Constants (K1) Coll3
matrilysin (Matr.) = biological target: T2, matrilysin (Matr.) (Homo sapiens, UniProt P09237); test: MCA fluorogenic enzyme assay, competitive inhibition analysis (Ki,app), matrilysin; format: biochemical; settings: MCA peptide substrate, 37° C., pH 7.5, read-out: Enzyme Inhibition Constants (K1) Matr.
T2 sequence (P09237 95-267): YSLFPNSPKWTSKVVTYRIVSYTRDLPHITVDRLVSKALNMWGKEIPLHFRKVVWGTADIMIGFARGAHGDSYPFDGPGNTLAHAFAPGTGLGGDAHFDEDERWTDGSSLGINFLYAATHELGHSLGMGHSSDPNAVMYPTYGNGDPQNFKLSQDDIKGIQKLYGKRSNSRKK
Description: Stromelysin enzymatic activity was measured using a modified version of a resonance energy transfer fluorogenic assay as described in FEBS, vol. 296(3), p. 263 (1992), the disclosure of which is incorporated herein by reference. The MCA-peptide substrate is shown below. The fluorescent MCA group is quenched by resonance energy transfer to the 2,4-dinitrophenyl group. Matrix metalloproteinases cleave this substrate at the Gly-Leu bond. Cleavage results in the loss of energy transfer and a large increase in fluorescence of the MCA group. [drawing 56] 7-methoxycoumarin-4-yl-acetyl-pro-leu-gly-leu-3-(2,4-dinitrophenyl)-L-2,3-diaminoproprionyl-ala-arg-NH2
The MCA assay was performed at 37° C. in buffer containing 50 mM Tricine (pH 7.5), 10 mM CaCl2, 200 mM NaCl, and 1% DMSO with the following concentrations of matrix metalloproteinases: 1.4 nM stromelyin, 0.063 nM matrilysin, and 0.030 nM gelatinase A. The concentration of MCA substrate was 10 or 20 μM in a final volume of 1.6 mL. Fluorescence data was collected with Perkin-Elmer LS-5B and LS-5B spectrofluorimeters with λexcitation=328 nm and λemission=393 nm. Spectrofluorimeters were interfaced with IBM-compatible microcomputer systems.
The Km for the MCA peptide substrate with the matrix metalloproteinases is quite high and exceeds its solubility under assay conditions. Consequently, the apparent Ki (Ki,app) was determined to describe the strength of inhibition. However, in this case, Ki,app would be essentially equal to Ki since [S]<<Km. For the determination of Ki,app, the concentration of the inhibitor was varied at a constant and low concentration of substrate and the steady-state rates of fluorescence change determined. In most cases absorptive quench due to the presence of ligand was not observed. For slow-binding inhibitors, onset of inhibition curves were collected for at least 45 minutes so that equilibrium was established. Steady-state rates of fluorescence change were obtained by fitting a curve to an equation for a single exponential decay containing a linear phase. The fitted value of the linear phase was taken as the steady-state rate. The steady-state rates were fitted to the Michaelis equation describing competitive inhibition by non-linear methods. Data resulting from tight-binding inhibition was analyzed, and Ki,app determined by fitting the data to the tight-binding equation of Morrison See (Biochem. Biophys. Acta, vol. 185, pp. 269-286 (1969)) by non-linear methods.

HFC = biological target: T3, HFC (Homo sapiens, UniProt P03956); test: MCA fluorogenic enzyme assay, competitive inhibition analysis (Ki,app), HFC; format: biochemical; settings: MCA peptide substrate, 37° C., pH 7.5, read-out: Enzyme Inhibition Constants (K1) HFC
T3 sequence (P03956 100-469): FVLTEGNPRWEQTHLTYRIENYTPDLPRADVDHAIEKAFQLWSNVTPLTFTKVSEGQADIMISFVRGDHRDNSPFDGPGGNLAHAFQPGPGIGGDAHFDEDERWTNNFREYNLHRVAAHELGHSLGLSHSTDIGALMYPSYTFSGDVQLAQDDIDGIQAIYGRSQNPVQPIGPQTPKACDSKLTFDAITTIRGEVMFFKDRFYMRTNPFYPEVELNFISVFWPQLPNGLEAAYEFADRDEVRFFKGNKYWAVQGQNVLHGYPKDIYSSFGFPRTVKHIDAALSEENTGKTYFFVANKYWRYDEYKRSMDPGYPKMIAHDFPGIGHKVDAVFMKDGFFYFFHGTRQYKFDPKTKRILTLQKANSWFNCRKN

[1] = tested on: murine Lewis lung carcinoma (NIH) tumor line; test: Tumor model: subcutaneous Lewis lung carcinoma, primary tumor growth and lung metastases; format: in vivo, female BDF1 mice; settings: 50 mg/kg; for Tumor Growth Delay / % Inhibition-Lung Metastases: i.p., daily, Day 1-Day 21; for Tumor Growth Delay: delay in reaching 1000 mm^3 tumor volume between control and treated animals; for % Inhibition-Lung Metastases: metastases counted 22 days after tumor implantation
Source text: Primary subcutaneous tumors were established in female BDF1 mice by trocar inoculation of the murine Lewis lung carcinoma (NIH) tumor line. This tumor line produces spontaneous lung metastases which arise from the primary tumor. Primary tumor growth was monitored by measuring the length and width of the subcutaneous tumor using calipers; lung metastases were counted at the end of the experiment (22 days after tumor implantation) by removing the lungs and counting the lesions using a dissecting microscope. The test compound was administered daily, i.p., beginning 24 hours after tumor implantation (day 1) and continuing through day 21. Primary tumor volumes and number of lung metastases were compared to control animals using an ANOVA followed by a comparison of means using the F statistic. […] All drugs were administered at 50 mg/kg, i.p., daily, Day 1-Day 21.

[2] = tested on: bovine nasal cartilage plugs; test: Arthritis model: implanted bovine nasal cartilage plugs in sponges impregnated with Mycobacterium tuberculosis; format: in vivo, female Lewis rats; settings: p < 0.01; for weight loss % inhibition: cartilage plug weight; for hydroxyproline % protection: hydroxyproline content of plugs
Description: Previously frozen bovine nasal cartilage plugs weighing approximately 20 mg were embedded in polyvinyl sponges impregnated with Mycobacterium tuberculosis and implanted subcutaneously in female Lewis rats. Dosing was begun 9 days after implantation and the plugs were harvested about one week later. The plugs were weighed and then hydrolyzed and the hydroxyproline content measured. Efficaciousness was determined by the comparison of the compound-treated groups with vehicle-treated controls.

Chain of stromelysin (HSLN) (P08254 100-477): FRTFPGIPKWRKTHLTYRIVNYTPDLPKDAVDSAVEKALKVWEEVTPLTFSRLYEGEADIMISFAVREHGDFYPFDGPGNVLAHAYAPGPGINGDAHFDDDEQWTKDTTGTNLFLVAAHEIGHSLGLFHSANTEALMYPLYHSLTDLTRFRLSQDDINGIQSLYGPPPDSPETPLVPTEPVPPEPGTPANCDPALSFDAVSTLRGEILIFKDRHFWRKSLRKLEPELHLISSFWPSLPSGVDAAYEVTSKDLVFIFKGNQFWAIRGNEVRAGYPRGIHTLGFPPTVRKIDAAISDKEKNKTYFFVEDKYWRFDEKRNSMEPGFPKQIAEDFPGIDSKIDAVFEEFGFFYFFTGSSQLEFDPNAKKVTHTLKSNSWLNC

Structure (SMILES)	Ki (stromelysin (HSLN))	melting point	Ki (gelatinase A (HG72kD))	Ki (Coll3)	Ki (matrilysin (Matr.))	Ki (HFC)	Tumor Growth Delay [1]	% Inhibition-Lung Metastases [1]	tumor growth delay relative to control (significance, in words) ([1]; p<0.025)	number of lung metastases relative to the control (significance, in words) ([1]; p<0.05)	weight loss % inhibition ([2]; dose p.o. 25 mg/kg/day)	weight loss % inhibition ([2]; dose p.o. 10 mg/kg/day)	hydroxyproline % protection ([2]; dose p.o. 10 mg/kg/day)
CC1(C)C(C(=O)NO)N(S(=O)(=O)c2ccc(Oc3ccc(Cl)cc3)cc2)CC[S+]1[O-] [Example 19(b), 1(R), 3(S)-N-hydroxy-4-(4-(4-chlorophenoxy)benzenesulfonyl)-2,2-dimethyl-1-oxo-tetrahydro-2H-1,4-thiazine-3-carboxamide]	2.5 nM	145 to 147 °C	0.018 nM										
CC(C)(C)OC(=O)N1CCN(S(=O)(=O)c2ccc(Oc3ccc(Br)cc3)cc2)C(C(=O)NO)C1 (racemic) [Example 4, 2(R/S)-N-hydroxy-1-(4-(4-bromophenoxy)benzenesulfonyl)-4-(t-butoxycarbonyl)-piperazine-2-carboxamide]	0.73 nM	112.4 °C	0.025 nM	0.07 nM	378 nM	60 nM							
CC(C)(C)OC(=O)N1CCN(S(=O)(=O)c2ccc(Oc3ccc(Cl)cc3)cc2)[C@@H](C(=O)NO)C1 [Example 9(a), 2(R)-N-hydroxy-1-(4-(4-chlorophenoxy)benzenesulfonyl)-4-(t-butoxycarbonyl)-piperazine-2-carboxamide]	0.31 nM		0.007 nM	0.006 nM	142 nM		7.2 days (p < 0.025)	77.6% (p < 0.05)	statistically significant	statistically significant			
Cc1ccc(Oc2ccc(S(=O)(=O)Cl)cc2)cc1 [2(b), 4-(4-Methylphenoxy)benzenesulfonyl chloride]		295 to 300 °C									81.1%		
Cl.O=C(NO)C1CNCCN1S(=O)(=O)c1ccc(Oc2ccc(Br)cc2)cc1 (racemic) [5(a), 2(R/S)-N-hydroxy-1(4-(4-bromophenoxy)benzenesulfonyl)-piperazine-2-carboxamide hydrochloride]	1.8 nM		0.77 nM	1.1 nM	263 nM	68 nM	2.0 days	13.6%				59.6%	72.5%
O=C(NO)C1CNCCN1S(=O)(=O)c1ccc(Oc2ccccc2)cc1 (racemic) [Example 5(b), 2(R/S)-N-hydroxy-1-(4-phenoxybenzenesulfonyl)-piperazine-2-carboxamide]	6.2 nM	160.4 °C	0.864 nM		560 nM								
CC(=O)N1CCN(S(=O)(=O)c2ccc(Oc3ccccc3)cc2)C(C(=O)NO)C1 (racemic) [7(a), 2(R/S)-N-hydroxy-1-(4-phenoxybenzenesulfonyl)-4-acetyl-piperazine-2-carboxamide]	0.64 nM		0.11 nM	0.05 nM	113 nM		0.0 days	16.1%				77.4%	86.7%
CC1(C)SCCN(S(=O)(=O)c2ccc(Oc3ccc(-n4ccnc4)cc3)cc2)[C@H]1C(=O)NO [3(a), 3(S)-N-hydroxy-4-(4-(4-(imidazol-1-yl)phenoxy)benzenesulfonyl)-2,2-dimethyl-tetrahydro-2H-1,4-thiazine-3-carboxamide]	0.25 nM		0.011 nM	0.017 nM	5 nM	15 nM					97.5%		
CCOC(=O)CN1CCN(S(=O)(=O)c2ccc(Oc3ccc(Cl)cc3)cc2)[C@@H](C(=O)NO)C1 (as salt: hydrochloride) [Example 11(c), 2(R)-N-hydroxy-1-(4-(4-chlorophenoxy)benzenesulfonyl)-4-(ethoxycarbonylmethyl)-piperazine-2-carboxamide hydrochloride]		163.7 °C											
CS(=O)(=O)N1CCN(S(=O)(=O)c2ccc(Oc3ccc(Cl)cc3)cc2)[C@@H](C(=O)NO)C1 [Example 12(a), 2(R)-N-hydroxy-1-(4-(4-chlorophenoxy)benzenesulfonyl)-4-(methanesulfonyl)-piperazine-2-carboxamide]	0.043 nM		0.003 nM	0.002 nM	28 nM	2.5 nM							
O=C(NO)[C@H]1COCCN1S(=O)(=O)c1ccc(Oc2ccc(Cl)cc2)cc1 [8(a), 3(R)-N-hydroxy-4-(4-(4-chlorophenoxy)benzenesulfonyl)-morpholine-3-carboxamide]	0.093 nM		0.031 nM	0.021 nM	77 nM	8.9 nM	-0.1 days	7.5%					
